Results taken from paper PMC5988656, “Phase I studies of AZD1208, a proviral integration Moloney virus kinase inhibitor in solid and haematological cancers” (British Journal of Cancer, 2018).

Assays:
[1] = Solid tumour dose-escalation study: pharmacokinetics (plasma, urine); assay type: in vivo, human; conditions: for Plasma concentration of AZD1208, Gmean: Cycle 1, Day 15
Method: The schedules for collection of blood and urine samples for PK analyses in each cohort in both studies are described in Supplementary Table 1. When necessary for clinical response assessment in the AML study, a bone marrow sample for PK analysis was collected at Cycle 1, Day 28.
The concentration of AZD1208 in plasma and urine was determined by Covance, on behalf of Clinical Bioanalysis Alliance at AstraZeneca R&D, using a bioanalytical method. A volume of 0.05 ml of K2EDTA human plasma sample was extracted by liquid–liquid extraction using 0.7 ml of methyl tert-butyl ether. Approximately 100 µl of the supernatant was transferred, evaporated to dryness and reconstituted with 350 µl of 1:1 methanol:water, and a 5 µl injection was made to the high-performance liquid chromatography (HPLC) column. HPLC separations were performed on a Phenomenex LUNA C18 (50 × 2 mm, 5 µm) column using a mobile phase of 0.1% formic acid in water (A) and 0.1% formic acid in acetonitrile (B) at a flow rate of 0.6 ml/min and a column temperature of 40 °C. AZD1208-D5 was used as the internal standard. Detection was performed in a Sciex API4000 mass spectrometer, in a positive electrospray ionisation mode, using multiple reaction monitoring detection (AZD1208: 380.0–>248.1; AZD1208-D5: 385.0–>253.1).

[2] = test system: AML cell lines; conditions: cited from earlier work

Structure (SMILES): N[C@@H]1CCCN(c2c(/C=C3\SC(=O)NC3=O)cccc2-c2ccccc2)C1 [AZD1208]
- Plasma concentration of AZD1208, Gmean ([1]; 0.25 h post-dose, 540 mg): n=3 496.8 ng ml
- Plasma concentration of AZD1208, Gmean ([1]; 0.5 h post-dose, 120 mg): n=3 1109 ng ml
- Plasma concentration of AZD1208, Gmean ([1]; 0.5 h post-dose, 240 mg): n=6 881.5 ng ml
- Plasma concentration of AZD1208, Gmean ([1]; 0.5 h post-dose, 360 mg): n=3 884.4 ng ml
- Plasma concentration of AZD1208, Gmean ([1]; 0.5 h post-dose, 540 mg): n=3 774 ng ml
- Plasma concentration of AZD1208, Gmean ([1]; 0.5 h post-dose, 700 mg): n=4 1042 ng ml
- Plasma concentration of AZD1208, Gmean ([1]; 0.5 h post-dose, 800 mg): n=2 1420 ng ml
- Plasma concentration of AZD1208, Gmean ([1]; 1 h post-dose, 120 mg): n=3 1319 ng ml
- Plasma concentration of AZD1208, Gmean ([1]; 1 h post-dose, 240 mg): n=6 1316 ng ml
- Plasma concentration of AZD1208, Gmean ([1]; 1 h post-dose, 360 mg): n=3 1983 ng ml
- Plasma concentration of AZD1208, Gmean ([1]; 1 h post-dose, 540 mg): n=3 1691 ng ml
- Plasma concentration of AZD1208, Gmean ([1]; 1 h post-dose, 700 mg): n=4 1320 ng ml
- Plasma concentration of AZD1208, Gmean ([1]; 1 h post-dose, 800 mg): n=2 1783 ng ml
- Plasma concentration of AZD1208, Gmean ([1]; 1.5 h post-dose, 120 mg): n=3 1367 ng ml
- Plasma concentration of AZD1208, Gmean ([1]; 1.5 h post-dose, 240 mg): n=6 1843 ng ml
- Plasma concentration of AZD1208, Gmean ([1]; 1.5 h post-dose, 360 mg): n=3 3212 ng ml
- Plasma concentration of AZD1208, Gmean ([1]; 1.5 h post-dose, 540 mg): n=3 3302 ng ml
- Plasma concentration of AZD1208, Gmean ([1]; 2 h post-dose, 120 mg): n=3 1681 ng ml
- Plasma concentration of AZD1208, Gmean ([1]; 2 h post-dose, 240 mg): n=6 2340 ng ml
- Plasma concentration of AZD1208, Gmean ([1]; 2 h post-dose, 360 mg): n=3 3106 ng ml
- Plasma concentration of AZD1208, Gmean ([1]; 2 h post-dose, 540 mg): n=3 3646 ng ml
- Plasma concentration of AZD1208, Gmean ([1]; 2 h post-dose, 700 mg): n=4 2802 ng ml
- Plasma concentration of AZD1208, Gmean ([1]; 2 h post-dose, 800 mg): n=2 1705 ng ml
- Plasma concentration of AZD1208, Gmean ([1]; 4 h post-dose, 120 mg): n=3 1649 ng ml
- Plasma concentration of AZD1208, Gmean ([1]; 4 h post-dose, 240 mg): n=6 1899 ng ml
- Plasma concentration of AZD1208, Gmean ([1]; 4 h post-dose, 360 mg): n=3 2483 ng ml
- Plasma concentration of AZD1208, Gmean ([1]; 4 h post-dose, 540 mg): n=3 2508 ng ml
- Plasma concentration of AZD1208, Gmean ([1]; 4 h post-dose, 700 mg): n=4 2882 ng ml
- Plasma concentration of AZD1208, Gmean ([1]; 4 h post-dose, 800 mg): n=2 2509 ng ml
- Plasma concentration of AZD1208, Gmean ([1]; 6 h post-dose, 120 mg): n=3 1657 ng ml
- Plasma concentration of AZD1208, Gmean ([1]; 6 h post-dose, 240 mg): n=6 1637 ng ml
- Plasma concentration of AZD1208, Gmean ([1]; 6 h post-dose, 360 mg): n=2 2130 ng ml
- Plasma concentration of AZD1208, Gmean ([1]; 6 h post-dose, 540 mg): n=3 2023 ng ml
- Plasma concentration of AZD1208, Gmean ([1]; 6 h post-dose, 700 mg): n=4 3291 ng ml
- Plasma concentration of AZD1208, Gmean ([1]; 6 h post-dose, 800 mg): n=2 3401 ng ml
- Plasma concentration of AZD1208, Gmean ([1]; 8 h post-dose, 120 mg): n=3 1262 ng ml
- Plasma concentration of AZD1208, Gmean ([1]; 8 h post-dose, 240 mg): n=6 1466 ng ml
- Plasma concentration of AZD1208, Gmean ([1]; 8 h post-dose, 360 mg): n=3 1813 ng ml
- Plasma concentration of AZD1208, Gmean ([1]; 8 h post-dose, 540 mg): n=3 1739 ng ml
- Plasma concentration of AZD1208, Gmean ([1]; pre-dose, 120 mg): n=3 903.1 ng ml
- Plasma concentration of AZD1208, Gmean ([1]; pre-dose, 240 mg): n=6 560.9 ng ml
- Plasma concentration of AZD1208, Gmean ([1]; pre-dose, 360 mg): n=3 602.5 ng ml
- Plasma concentration of AZD1208, Gmean ([1]; pre-dose, 540 mg): n=4 266.6 ng ml
- Plasma concentration of AZD1208, Gmean ([1]; pre-dose, 700 mg): n=3 819 ng ml
- Plasma concentration of AZD1208, Gmean ([1]; pre-dose, 800 mg): n=2 1099 ng ml
- Half-life, max ([1]; following a single dose): 103 h
- Half-life, min ([1]; following a single dose): 18.9 h
- Mean half-life ([1]; following a single dose): 37.2 h
- Median Tmax ([1]; multiple dosing): ~ 4 h
- Tmax range ([1]; multiple dosing): 1.5 to 6 h
- AZD1208 dose observed in urine ([1]; multiple dosing, Day 15): 0.5%
- Renal clearance ([1]; single and multiple dosing): negligible
- AZD1208 dose eliminated in urine ([1]; single dose, over 72 h): ~ 1%
- Median Tmax ([1]; single dosing): ~ 5 h
- Tmax range ([1]; single dosing): 1.5 to 25 h
- Effect on cell cycle and apoptosis [2]: induced cell cycle arrest and apoptosis
